{"source": "patent US8093207B2", "about": "“Fast-acting oral peptide pharmaceutical products” (Unigene Laboratories, Inc., priority 2005, dated 2012)", "key": {"[1]": {"test": "Absorption of non-sCT peptides from non-enteric coated capsules given orally to fasted dogs", "conditions": "in vivo, 2.4 mg; Table 9: dog, oral non-enteric capsule, at least 500 mg citric acid, 50 mg lauroylcarnitine; ± sem", "experimental": "Size 00 UPMC capsules were each filled with a powdered blend consisting of at least 500 mg citric acid, 50 mg lauroylcarnitine and 1 of the indicated peptides. Each week eight fasted dogs were orally administered 1 of the uncoated capsules. After administration of the capsule, samples of blood were taken at 15 minute intervals from an indwelling catheter for up to 4 hours. The blood samples were centrifuged and the resulting plasma supernatants were stored frozen at −20° C."}, "[2]": {"test": "in vivo", "experimental": "Female Wistar rats (250-275 g) (n=3 for each formulation) were anesthetized with ketamine and xylazine prior to the insertion of a cannula in the carotid artery. The cannula was fitted to a three way valve through which blood was sampled and replaced with physiological saline. A midline incision was made in the abdominal cavity and 0.5 ml of formulation was injected directly into the exposed duodenum. The pH of the formulation was adjusted by mixing varying amounts of equal molar concentrations of citric acid and sodium citrate. Blood (0.5 ml) was collected before and at 5, 15, 30, 60 and 120 minutes after the administration of the formulation. Samples of blood were centrifuged for 10 minutes at 2600 g and the resulting plasma supernatant was stored at −20° C. The concentration of calcitonin in plasma was determined by a competitive radioimmunoassay. The absolute bioavailability (i.e., relative to an intravenous dose of calcitonin) was calculated from the areas under the curve obtained from plots of the plasma concentration of calcitonin as a function of time.\nSamples of blood were removed at various times and analyzed for the indicated peptide as described previously."}, "[3]": {"conditions": "cited from earlier work"}, "[4]": {"test": "Blood levels of salmon calcitonin after direct injection of active components into duodenum, ilium or colon", "type": "in vivo", "conditions": "other: injected directly into the duodenum", "from_the_text": "The pH-lowering agent is believed to lower the local pH (where the active agent has been released) to levels below the optimal range for many intestinal proteases. This decrease in pH reduces the proteolytic activity of the intestinal proteases, thus affording protection to the peptide from potential degradation should the peptide be present within the intestine. The activity of these proteases is diminished by the temporarily acidic environment provided by the invention. It is preferred that sufficient acid be provided that local intestinal pH is lowered temporarily to 5.5 or below, preferably 4.7 or below and more preferably 3.5 or below. The sodium bicarbonate test described below (in the section captioned “the pH-Lowering Agent”) is indicative of the required acid amount. […] The absorption enhancers of the invention synergistically promote peptide absorption into the blood while conditions of reduced proteolytic activity prevail. The mechanism by which the invention is believed to accomplish the goal of enhanced bioavailability is aided by having active components of the finished pharmaceutical product released together as simultaneously as possible."}, "[5]": {"test": "Absorption of sCT from orally administered capsules (enteric-coated or uncoated) in fasted dogs, plasma ELISA", "type": "in vivo, dog", "conditions": "for Tmax / Cmax: plasma", "from_the_text": "Size 00 UPMC (hydroxypropylmethyl cellulose) capsules were each filled with a powdered blend consisting of citric acid, lauroylcarnitine, and salmon calcitonin (sCT). Half the capsules were coated with an enteric coating solution of […] L30D-55 (a methacrylic acid co-polymer with methacrylic acid methyl ester, an enteric coating available from ROUM Tech Inc., Maidan, Mass.), and the remaining capsules were not enteric coated. The coating process corresponded to that taught in U.S. Pat. No. 6,086,918 at col. 11, line 50 to col. 12, line 11. Eight fasted dogs were each orally administered 1 uncoated capsule and 2 weeks later they were each orally administered an enteric-coated capsule. After administration of each capsule, samples of blood were taken at 15 minute intervals from an indwelling catheter for up to 4 hours. The blood samples were centrifuged and the resulting plasma supernatants were stored frozen at −20° C. The plasma samples were subsequently analyzed for sCT by a direct ELISA. […] Nearly three times as much sCT was detected in the plasma of dogs given enteric-coated capsules than non-coated capsules. The maximum concentration of sCT in dogs orally administered uncoated capsules was seen within 30 minutes after their administration. The maximum concentration of sCT in dogs given enteric-coated capsules was seen 98 minutes after their administration. […] The increased speed can be advantageous, especially in the case of peptides wherein speed is more important than overall bioavailability (e.g., pain relievers). There can also be an advantage in production efficiency when the enteric coating step is not required.\nSize 00 UPMC (hydroxypropylmethyl cellulose) capsules were each filled with a powdered blend consisting of the indicated amount of citric acid, lauroylcarnitine, sucrose and salmon calcitonin (sCT). Each week eight fasted dogs were each orally administered 1 of the uncoated capsules. After administration of the capsule, samples of blood were taken at 15 minute intervals from an indwelling catheter for up to 4 hours. The blood samples were centrifuged and the resulting plasma supernatants were stored frozen at −20° C. The plasma samples were subsequently analyzed for sCT by a direct ELISA. […] In the absence of citric acid but in the presence of lauroylcarnitine the maximum concentration of sCT in the plasma of dogs decreased by 80%. In the absence of citric acid and lauroylcarnitine, the maximum concentration of sCT in dogs decreased by 99%."}, "[6]": {"test": "Dissolution of human insulin in water with or without citric acid"}, "[7]": {"conditions": "female, Wistar, rat, in vivo, 0.1 mg"}, "[8]": {"conditions": "female, Wistar, rat, in vivo, 1 mg"}, "[9]": {"conditions": "Table 6: rat, intraduodenal, insulin 1 mg with citric acid 48 mg only"}}, "data": [{"compound": "Cc1cc(O)cc(C)c1C[C@H](N)C(=O)N[C@H](CCCNC(=N)N)C(=O)N[C@@H](Cc1ccccc1)C(=O)N[C@@H](CCCCN)C(N)=O", "note": "[Dmt-DALDA, H-2,6-dimethyltyrosine-D-Arginine-Phenylalanine-Lysine-NH2]", "values": [{"measurement": "Cmax", "setting": "[1]", "result": "7.48 ± 1.49", "unit": "ng/mL"}, {"measurement": "Tmax", "setting": "[1]", "result": 28, "unit": "min"}]}, {"compound": "CC(C)C[C@H](NC(=O)[C@H](CCCCN)NC(=O)CNC(=O)[C@H](CC(C)C)NC(=O)[C@@H](NC(=O)[C@@H]1CSSC[C@H](N)C(=O)N[C@@H](CO)C(=O)N[C@@H](CC(N)=O)C(=O)N[C@@H](CC(C)C)C(=O)N[C@@H](CO)C(=O)N[C@@H]([C@@H](C)O)C(=O)N1)C(C)C)C(=O)N[C@@H](CO)C(=O)N[C@@H](CCC(N)=O)C(=O)N[C@@H](CCC(=O)O)C(=O)N[C@@H](CC(C)C)C(=O)N[C@@H](Cc1c[nH]cn1)C(=O)N[C@@H](CCCCN)C(=O)N[C@@H](CC(C)C)C(=O)N[C@@H](CCC(N)=O)C(=O)N[C@H](C(=O)N[C@@H](Cc1ccc(O)cc1)C(=O)N1CCC[C@H]1C(=O)N[C@@H](CCCNC(=N)N)C(=O)N[C@H](C(=O)N[C@@H](CC(N)=O)C(=O)N[C@H](C(=O)NCC(=O)N[C@@H](CO)C(=O)NCC(=O)N[C@H](C(=O)N1CCC[C@H]1C(N)=O)[C@@H](C)O)[C@@H](C)O)[C@@H](C)O)[C@@H](C)O", "note": "[Salmon Calcitonin]", "values": [{"measurement": "Absolute Bioavailability", "setting": "[2]; female, Wistar, rat, in vivo", "result": 4.81, "unit": "%"}, {"measurement": "Cmax", "setting": "[2]; [7]", "result": 27.7, "unit": "ng/mL"}, {"measurement": "bioavailability", "setting": "[2]; female, Wistar, rat, in vivo, 1 mg, Absolute Bioavailability", "result": 0.096, "unit": "%"}, {"measurement": "bioavailability", "setting": "[2]; female, Wistar, rat, in vivo, Absolute Bioavailability", "result": 4.53, "unit": "%"}, {"measurement": "Increase in absolute bioavailability", "setting": "[2]; rat, in vivo", "result": 50, "unit": "fold"}, {"measurement": "half-life", "setting": "[3]; following subcutaneous administration in man", "result": "20 to 40", "unit": "min"}, {"measurement": "peak levels at which effective against osteoporosis", "setting": "[3]; nasally administered, 200 International units", "result": "≥ 10", "unit": "picograms per milliliter"}, {"measurement": "duration of beneficial effect on osteoclasts", "setting": "[3]; notwithstanding rapid decrease in blood levels", "result": "more than 24 hours"}, {"measurement": "peak levels at which some patients report gastrointestinal distress", "setting": "[3]; patients, high peak levels", "result": "≥ 200", "unit": "picograms per milliliter"}, {"measurement": "peak serum concentration", "setting": "[3]; subcutaneous administration, 100 International units", "result": "about 250 picograms per milliliter"}, {"measurement": "Tmax", "setting": "[4]", "result": "5 to 15", "unit": "min"}, {"measurement": "Decrease of maximum concentration of sCT", "setting": "[5]; Table 8, dog: absence of citric acid and lauroylcarnitine", "result": 99, "unit": "%"}, {"measurement": "Decrease of maximum concentration of sCT in plasma", "setting": "[5]; Table 8, dog: absence of citric acid but presence of lauroylcarnitine", "result": 80, "unit": "%"}, {"measurement": "Cmax (maximum plasma concentration sCT corrected to 1 mg dose)", "setting": "[5]; Table 8: dog, oral non-enteric capsule, citric acid 0, lauroylcarnitine 0, sucrose 805 mg, sCT 5.31 mg", "result": "0.018 ± 0.012", "unit": "ng/mL"}, {"measurement": "Cmax (maximum plasma concentration sCT corrected to 1 mg dose)", "setting": "[5]; Table 8: dog, oral non-enteric capsule, citric acid 824 mg, lauroylcarnitine 0, sucrose 0, sCT 5.31 mg", "result": "4.612 ± 2.766", "unit": "ng/mL"}, {"measurement": "Tmax", "setting": "[5]; dog, po, 5.31 mg, Table 8: dog, oral non-enteric capsule, citric acid 0, lauroylcarnitine 0, sucrose 805 mg, sCT 5.31 mg, sCT only detected in 1 of 8 dogs, read-out: Tmax (converted)", "result": 225, "unit": "min"}, {"measurement": "Tmax", "setting": "[5]; dog, po, 5.31 mg, Table 8: dog, oral non-enteric capsule, citric acid 824 mg, lauroylcarnitine 0, sucrose 0, sCT 5.31 mg, read-out: Tmax (converted)", "result": 24, "unit": "min"}, {"measurement": "Tmax", "setting": "[5]; dog, po, 5.37 mg, Table 8: dog, oral non-enteric capsule, citric acid 679 mg, lauroylcarnitine 67 mg, sucrose 0, sCT 5.37 mg, read-out: Tmax (converted)", "result": 26, "unit": "min"}, {"measurement": "Tmax", "setting": "[5]; dog, po, 6.17 mg, Table 8: dog, oral non-enteric capsule, citric acid 0, lauroylcarnitine 70 mg, sucrose 712 mg, sCT 6.17 mg, read-out: Tmax (converted)", "result": 41, "unit": "min"}, {"measurement": "Cmax", "setting": "[5]; Table 7: dog, oral capsule, enteric coat no, citric acid 643 mg, lauroylcarnitine 66 mg, sCT 13.07 mg, ± sem", "result": "3.29 ± 0.823", "unit": "ng/mL"}, {"measurement": "Tmax", "setting": "[5]; Table 7: dog, oral capsule, enteric coat no, citric acid 643 mg, lauroylcarnitine 66 mg, sCT 13.07 mg, ± sem, read-out: Tmax (time when maximum plasma sCT concentration detected) (converted)", "result": "≤ 30", "unit": "min"}, {"measurement": "Cmax", "setting": "[5]; Table 7: dog, oral capsule, enteric coat yes, citric acid 632 mg, lauroylcarnitine 65 mg, sCT 12.84 mg, ± sem", "result": "15.8 ± 4.2", "unit": "ng/mL"}, {"measurement": "Tmax", "setting": "[5]; Table 7: dog, oral capsule, enteric coat yes, citric acid 632 mg, lauroylcarnitine 65 mg, sCT 12.84 mg, ± sem, read-out: Tmax (time when maximum plasma sCT concentration detected) (converted)", "result": 98, "unit": "min"}, {"measurement": "Cmax", "setting": "[5]; Table 8: dog, oral non-enteric capsule, citric acid 0, lauroylcarnitine 70 mg, sucrose 712 mg, sCT 6.17 mg", "result": "1.02 ± 0.57", "unit": "ng/mL"}, {"measurement": "Cmax", "setting": "[5]; Table 8: dog, oral non-enteric capsule, citric acid 679 mg, lauroylcarnitine 67 mg, sucrose 0, sCT 5.37 mg", "result": "5.43 ± 3.2", "unit": "ng/mL"}]}, {"compound": "NC(=O)CC[C@@H]1NC(=O)[C@H](Cc2ccccc2)NC(=O)[C@H](Cc2ccc(O)cc2)NC(=O)[C@@H](N)CSSC[C@@H](C(=O)N2CCC[C@H]2C(=O)N[C@@H](CCCN=C(N)N)C(=O)NCC(N)=O)NC(=O)[C@H](CC(N)=O)NC1=O", "note": "[[Arg^8]-Vasopressin, [Arg^8]-vasopressin]", "values": [{"measurement": "Cmax", "setting": "[2]; [7]", "result": 24.3, "unit": "ng/mL"}, {"measurement": "bioavailability", "setting": "[2]; [7]", "result": 8.1, "unit": "%"}, {"measurement": "Cmax", "setting": "[2]; [8]", "result": 0.62, "unit": "ng/mL"}, {"measurement": "bioavailability", "setting": "[2]; [8]", "result": 0.38, "unit": "%"}]}, {"compound": "Human Insulin: peptide pharmaceutical frequently administered by injection", "values": [{"measurement": "Increase in absolute bioavailability", "setting": "[2]; Table 6, rat: lauroylcarnitine included vs citric acid alone", "result": 10, "unit": "fold"}, {"measurement": "Absolute Bioavailability", "setting": "[2]; [9]", "result": 0.07, "unit": "%"}, {"measurement": "Peak Plasma Peptide", "setting": "[2]; [9]", "result": 0.56, "unit": "ng/mL"}, {"measurement": "Peak Plasma Peptide", "setting": "[2]; Table 6: rat, intraduodenal, peptide 0.1 mg (insulin 1 mg) with citric acid 48 mg and lauroylcarnitine 5 mg", "result": 18.3, "unit": "ng/mL"}, {"measurement": "dissolution in water", "setting": "[6]; in the absence of citric acid", "result": "could not even be dissolved in water"}, {"measurement": "dissolution in water", "setting": "[6]; in the presence of citric acid", "result": "all of the peptide was easily dissolved"}]}]}
